In ChEMBL document CHEMBL5550187, “The Development of a Highly Potent and Selective Human Toll-like Receptor 2 Agonist: Synthesis and Biological Evaluation of CaLGL-1 and Its Derivatives” (J Med Chem, 2024):
Active and inactive are the calls of the source. The calls are words filed in the database; no cut-off is given here.

Assays:
Format in all cases: cell-based
[1] = molecular target: Toll-like receptor 2 (Mus musculus) (UniProt Q9QUN7); assay: Agonist activity at TLR2 in CSF-2/GM-CSF treated wild type C57BL/6 mouse BMDC cells assessed as increase in TNF-alpha mRNA expression at 10 uM measured after 24 hrs by qRT-PCR analysis
Sequence of Toll-like receptor 2 (Mus musculus) (Q9QUN7 whole entry): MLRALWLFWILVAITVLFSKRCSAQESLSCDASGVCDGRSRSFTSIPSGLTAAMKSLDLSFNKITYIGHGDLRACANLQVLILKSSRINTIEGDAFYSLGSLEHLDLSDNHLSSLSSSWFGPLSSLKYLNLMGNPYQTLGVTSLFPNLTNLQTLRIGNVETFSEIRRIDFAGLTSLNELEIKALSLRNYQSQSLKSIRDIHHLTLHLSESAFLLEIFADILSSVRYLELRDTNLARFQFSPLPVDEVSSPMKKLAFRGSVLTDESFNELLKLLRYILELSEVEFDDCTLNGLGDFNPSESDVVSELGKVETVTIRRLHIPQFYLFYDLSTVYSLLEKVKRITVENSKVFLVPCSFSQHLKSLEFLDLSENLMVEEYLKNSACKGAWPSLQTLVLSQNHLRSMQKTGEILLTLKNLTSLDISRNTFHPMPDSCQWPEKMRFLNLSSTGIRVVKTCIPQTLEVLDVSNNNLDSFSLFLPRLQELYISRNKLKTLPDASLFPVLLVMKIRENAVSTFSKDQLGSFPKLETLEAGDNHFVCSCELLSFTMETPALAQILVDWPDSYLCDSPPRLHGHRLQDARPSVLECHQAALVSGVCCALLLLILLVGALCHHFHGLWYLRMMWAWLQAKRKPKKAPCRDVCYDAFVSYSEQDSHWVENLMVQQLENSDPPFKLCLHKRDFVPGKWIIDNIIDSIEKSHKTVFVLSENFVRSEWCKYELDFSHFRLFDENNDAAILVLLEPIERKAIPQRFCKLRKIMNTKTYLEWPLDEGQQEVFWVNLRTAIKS

[2] = molecular target: Toll-like receptor 2 (Mus musculus) (UniProt Q9QUN7); assay: Agonist activity at TLR2 in CSF-2/GM-CSF treated wild type C57BL/6 mouse BMDC cells assessed as increase in TNF-alpha level at 10 uM measured after 24 hrs by ELISA
Toll-like receptor 2 [3] = molecular target: T1, Toll-like receptor 2 (Homo sapiens, UniProt O60603); assay: Agonist activity at TLR2 in PMA-differentiated human THP-1 cells assessed as increase in IL-1beta mRNA expression by qRT-PCR analysis
T1 sequence (O60603 whole entry): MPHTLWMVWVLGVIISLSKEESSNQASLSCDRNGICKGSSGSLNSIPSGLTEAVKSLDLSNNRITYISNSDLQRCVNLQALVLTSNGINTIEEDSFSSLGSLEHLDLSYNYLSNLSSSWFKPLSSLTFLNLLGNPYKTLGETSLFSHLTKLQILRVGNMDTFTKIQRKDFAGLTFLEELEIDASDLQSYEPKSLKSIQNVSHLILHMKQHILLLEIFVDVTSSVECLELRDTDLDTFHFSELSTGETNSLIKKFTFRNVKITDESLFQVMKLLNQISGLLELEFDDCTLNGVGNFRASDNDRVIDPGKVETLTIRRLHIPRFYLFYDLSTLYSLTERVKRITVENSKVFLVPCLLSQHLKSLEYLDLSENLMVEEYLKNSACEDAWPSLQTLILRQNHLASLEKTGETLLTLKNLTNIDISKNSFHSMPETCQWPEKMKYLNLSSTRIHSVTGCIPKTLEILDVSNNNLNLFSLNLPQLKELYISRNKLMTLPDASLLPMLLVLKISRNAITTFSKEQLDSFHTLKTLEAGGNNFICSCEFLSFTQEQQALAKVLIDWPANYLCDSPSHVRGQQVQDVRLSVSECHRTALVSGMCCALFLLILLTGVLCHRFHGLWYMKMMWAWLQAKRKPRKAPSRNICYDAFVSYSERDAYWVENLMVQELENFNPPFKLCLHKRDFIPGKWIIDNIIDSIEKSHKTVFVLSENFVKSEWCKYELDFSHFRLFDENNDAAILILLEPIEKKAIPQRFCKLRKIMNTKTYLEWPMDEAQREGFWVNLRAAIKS

Toll-like receptor 2 [4] = molecular target: T1, Toll-like receptor 2; assay: Agonist activity at TLR2 in PMA-differentiated human THP-1 cells assessed as increase in TNF-alpha mRNA expression by qRT-PCR analysis
Toll-like receptor 2 [5] = molecular target: Toll-like receptor 2 (Mus musculus, UniProt Q9QUN7); assay: Agonist activity at TLR2 in RmGM-CSF-induced wild type Black6 mouse BMDC cells lacking TLR4 assessed as increase in TNFalpha response incubated overnight by ELISA
Sequence of Toll-like receptor 2 (Mus musculus, UniProt Q9QUN7) (Q9QUN7 whole entry): as the sequence (Q9QUN7 whole entry) above

Toll-like receptor 2 [6] = molecular target: T1, Toll-like receptor 2; assay: Agonist activity at TLR2 in PMA-differentiated human THP-1 cells assessed as increase in IL-6 mRNA expression by qRT-PCR analysis
Toll-like receptor 2 [7] = molecular target: T1, Toll-like receptor 2; assay: Agonist activity at TLR2 in PMA-differentiated human THP-1 cells assessed as increase in TNF-alpha level by ELISA
[8] = molecular target: Toll-like receptor 1/2 (Homo sapiens) (UniProt O60603+Q15399); assay: Agonist activity at human TLR1/TLR2 heterodimer transfected in HEK293T cells cotransfected with NF-kappaB promoter assessed as fold increase in NF-kappaB activation at 1 to 50 uM measured after 24 hrs by Dual-Glo luciferase assay relative to TLR2 alone; conditions: filed as agonist, dose 1-50 µM
Toll-like receptor 2 [9] = molecular target: T1, Toll-like receptor 2; assay: Agonist activity at human TLR2 transfected in HEK293T cells cotransfected with NF-kappaB promoter assessed as increase in NF-kappaB activation measured after 24 hrs by Dual-Glo luciferase assay; conditions: filed as agonist
TLR2/TLR6 (Homo sapiens) = TLR2/TLR6 (Homo sapiens) (UniProt O60603+Q9Y2C9); assay: Agonist activity at human TLR2/TLR6 heterodimer transfected in HEK293T cells cotransfected with NF-kappaB promoter assessed as increase in NF-kappaB activation at 1 to 50 uM measured after 24 hrs by Dual-Glo luciferase assay; conditions: dose 1-50 µM

SMILES | Activity [1] | Activity [2] | Activity ([1]; filed as agonist) | Activity ([2]; filed as agonist) | other results
CCCCCCCCCCCCCCCCCCC[C@@H]1OC[C@H]([C@@H]2O[C@@H](OC[C@H](O)COC(=O)CCCCCCCCCCC)[C@H](O)[C@H]2O)O1 | inactive | inactive |  |  | 
CCCCCCCCCCCC(=O)OC[C@@H](O)CO[C@@H]1O[C@@H]([C@H]2CO[C@@H](CCCCCCCCC)O2)[C@H](O)[C@H]1O |  |  | Active | Active | 
CCCCCCCCCCCCC[C@@H]1OC[C@H]([C@@H]2O[C@@H](OC[C@H](O)COC(=O)CCCCCCCCCCC)[C@H](O)[C@H]2O)O1 |  |  |  |  | Activity (Toll-like receptor 2 [3]): inactive; Activity (Toll-like receptor 2 [4]): inactive; EC50 (Toll-like receptor 2 [5]): 3.2 µM; Activity (Toll-like receptor 2 [6]): inactive
CCCCCCCCCCCC(=O)OC[C@@H](O)CO[C@@H]1O[C@@H]([C@H]2CO[C@H](CCCCCCCCCCC)O2)[C@H](O)[C@H]1O |  |  | Active | Active | 
CCCCCCCCCCCCCCCCC[C@@H]1OC[C@H]([C@@H]2O[C@@H](OC[C@H](O)COC(=O)CCCCCCCCCCC)[C@H](O)[C@H]2O)O1 | inactive | inactive |  |  | 
CCCCCCCCCCCC(=O)OC[C@@H](O)CO[C@@H]1O[C@@H]([C@H]2CO[C@H](CCCCCCCCC)O2)[C@H](O)[C@H]1O |  |  | Active | Active | 
CCCCCCCCCCCC[C@@H]1OC[C@H]([C@@H]2O[C@@H](OC[C@H](O)COC(=O)CCCCCCCCCCC)[C@H](O)[C@H]2O)O1 |  |  |  |  | EC50 (Toll-like receptor 2 [7]): 0.000116 µM; fold change (FC) [8]: 15; Activity (Toll-like receptor 2 [9]): Active; Activity (TLR2/TLR6 (Homo sapiens)): inactive

The next lines start with results.

Activity [1] | Activity [2] | Activity ([1]; filed as agonist) | Activity ([2]; filed as agonist) | SMILES | other results
inactive | inactive |  |  | CCCCCCCCCCCCCCCCCCC[C@H]1OC[C@H]([C@@H]2O[C@@H](OC[C@H](O)COC(=O)CCCCCCCCCCC)[C@H](O)[C@H]2O)O1 | 
inactive | inactive |  |  | CCCCCCCCCCCCCCCCC[C@H]1OC[C@H]([C@@H]2O[C@@H](OC[C@H](O)COC(=O)CCCCCCCCCCC)[C@H](O)[C@H]2O)O1 | 
 |  | Active | Active | CCCCCCCCCCCC(=O)OC[C@@H](O)CO[C@@H]1O[C@@H]([C@H]2CO[C@@H](CCCCCCCCCCC)O2)[C@H](O)[C@H]1O | Activity (Toll-like receptor 2 [3]; filed as agonist): Active; Activity (Toll-like receptor 2 [4]; filed as agonist): Active; Activity (Toll-like receptor 2 [6]; filed as agonist): Active
